Measured values taken from patent US8129425B2, “Small organic molecule regulators of cell proliferation” (Curis, Inc., priority 2000, dated 2012).

How the values were obtained:
ptc-lacZ skin punches = experiment: Skin explants from ptc-lacZ pups (X-Gal stain); type: cell-based, mouse; conditions: agonist alone, cultured 6 days
Experimental: Skin from ptc-lacZ E17.5 pups was excised with a 2 mm skin punch. Those skin punches were then cultured for 6 days in control media, or media including either agonist B or D or Hh protein, or media including both an agonist and Hh protein. The explants were then stained with X-Gal stain.

[1] = test system: hedgehog-responsive Gli-Luc reporter-construct; experiment: Gli-Luc hedgehog pathway reporter assay in [10T1/2(s12)] cells; type: cell-based, murine; conditions: Table 1
Method in brief: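 10T1/2(s12) cells carrying a Gli-Luc reporter, switched to 0.5% FBS medium, then exposed to compound for 24 hr; luciferase read by luminescence. Screen A: 1-2 μM with Hh protein at 0.01 μg/ml (about EC30); Screen B: 5 μM without Hh. Activity expressed as percent of full Hh-induced signal.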

CNC1CCC(N(Cc2ccc(OC)c(-c3ccc(C#N)cc3)c2)C(=O)c2sc3ccccc3c2Cl)CC1 (centres unmarked) [D]
X-Gal staining of skin explants (ptc-lacZ skin punches): Analogous results
EC50 [1]: < 100 nM
